Experimental data reported in US4882349A, “Pyrrolacetic amides having antiinflammatory activity” (priority 1982, dated 1989).

Experiments:
[1] = tested on: carrageenin-induced oedema; assay: carrageenin-induced oedema test (anti-inflammatory activity); assay type: in vivo, albino male Wistar rats
Description: This effect was evaluated by means of an experimental model reproducing acute inflammation: for this purpose the carrageenin- induced oedema test was employed following the method described by C.
Albino male Wistar rats weighing 140-160 g were caged for 10 days at 22±1° C. and given a balanced diet and water ad libitum. Eighteen hours before the experiment the animals were randomized into groups of ten and fasted but with free access to water. Each dose was tested in three groups of rats. Each compound was given either orally, by gavage, or parenterally--intraperitoneal injection--administering as follows:
controls: 0.5% carboxymethylcellulose suspension in physiological saline, 10 ml/kg
treated: suspension of the compounds to be tested in the same vehicle and at the same volume (10 ml/kg) used for the controls at the doses specified below.
One hour after administration of the compounds and vehicle, in order to provoke the oedema for determining the protective effect of the substances under examination, each rat received, by subcutaneous injection into the plantar surface of the left paw, 0.1 ml of 1% sterile carrageenin suspension.

[2] = tested on: phenyl-p-quinone-induced writhing (abdominal contractions); assay: phenylquinone-induced writhing test (analgesic activity), compound given 30 min before phenyl-p-quinone; assay type: in vivo, male Wistar rats; conditions: 10 mg/Kg per os
Description: Male Wistar rats weighing 110±5 g were caged for 10 days at 22±1° C. and given a balanced diet with free access to water. Twenty-four hours before the experiment the animals were randomized into groups of 10 and fasted for 14 hours but with free access to water. Each dose was tested in 3 groups of rats. Thirty minutes following administration either orally or parenterally of the products to be tested and the vehicle alone (0.5% carboxymethyl-cellulose in physiological saline) in the control animals, each rat was given 2 ml of a 5% absolute ethanol aqueous solution containing 0.36% of phenyl-p-quinone (Sigma Chemical Company) in order to provoke writhings. Fifteen minutes after administration of phenyl-p-quinone the number of contractions were counted for 20 minutes. The inhibiting effect of the compounds under examination on the abdominal contractions induced by phenyl-p-quinone was calculated by the following formula: % protection= [formula]
Table V lists the tested compounds, doses, routes of administration and their efficacy expressed as percentage of protection, taking into account that phenyl-p-quinone was administered thirty minutes after the compounds.

[3] = tested on: mucus secreted by the respiratory airway; assay: antisecretory activity, respiratory mucus secretion; assay type: in vivo, albino male New Zealand rabbits; conditions: vs control group
Description: The experiment was carried out in accordance with the method described by Y. Kase (Folia Pharmacol. Jap. 73: 605, 1977) for the purpose of investigating whether or not the compounds under examination determine changes in the volume of the mucus secreted by the respiratory airway. Groups of four albino male New Zealand rabbits (mean weight: 2.5 kg) were used for testing each dose per single group. The animals were anesthetized with urethane (1.1 g/ks b.w.) via the intraperitoneal route and a Y cannula was inserted into the trachea. In order to stimulate mucous secretion a humidifier was connected to the cannula permitting the animals to spontaneously breathe air with 100% humidity at a constant temperature of 39° C. The secreted mucus was collected through another opening in the cannula and measured at three and six hours after administration of the compounds under examination or of the vehicle alone administered in the order of […] (controls). Calculation of the increase or decrease in mucous secretion was based upon the percentage differences between the groups treated with the compounds under examination and the control group. Table VII gives the percentage differences in mucous secretion, and the tested compounds with relative doses and routes of administration.

[4] = tested on: cough provoked by mechanical stimulation of the tracheal bifurcation mucosa; assay: antitussive activity, mechanically provoked coughing; assay type: in vivo, albino Guinea-pigs; conditions: 1 h after administration
Description: The antitussive effect on albino Guinea-pigs weighing 300 g was evaluated using the method described by Y. Kase (Selected Pharmacological Testing Methods, p.363, Marcel Dekker Inc., New York, 1968). Each dose was tested in a group of animals with a Y cannula inserted into the trachea. In order to provoke coughing, the mucosa of the tracheal bifurcation was mechanically stimulated by insertion of a wild boar's hair through an opening in the cannula, while the other opening was connected to a kymograph to plot the amplitude and/or frequency. The reduction in the number of coughs was evaluated at one hour after administration of the compounds under examination by following the plottings for twenty minutes and comparing the response of the control animals.

Cc1ccc(C(=O)c2ccc(CC(=O)O)n2C)cc1 [Tolmetin Na.2H2 O, 1-methyl-5-p-toluoylpyrrole-2-acetic acid, reference compound]
oedema % inhibition ([1]; 10 mg/Kg per os, 2 h): 44.8%
oedema % inhibition ([1]; 10 mg/Kg per os, 4 h): 29.2%
oedema % inhibition ([1]; 10 mg/Kg per os, 6 h): 10.2%
oedema % inhibition ([1]; 10 mg/Kg per os, 24 h): 0.0%
oedema % inhibition ([1]; 10 mg/Kg per os, 48 h): 0.0%
oedema % inhibition ([1]; 10 mg/Kg per os, 72 h): 0.0%
oedema % inhibition ([1]; 10 mg/Kg, Table IV (route not given), 2 h): 46.0%
oedema % inhibition ([1]; 10 mg/Kg, Table IV (route not given), 4 h): 39.1%
oedema % inhibition ([1]; 10 mg/Kg, Table IV (route not given), 6 h): 20.0%
oedema % inhibition ([1]; 10 mg/Kg, Table IV (route not given), 24 h): 0.0%
oedema % inhibition ([1]; 10 mg/Kg, Table IV (route not given), 48 h): 0.0%
oedema % inhibition ([1]; 10 mg/Kg, Table IV (route not given), 72 h): 0.0%
oedema % inhibition ([1]; 50 mg/Kg per os, 2 h): 48.0%
oedema % inhibition ([1]; 50 mg/Kg per os, 4 h): 55.3%
oedema % inhibition ([1]; 50 mg/Kg per os, 6 h): 55.2%
oedema % inhibition ([1]; 50 mg/Kg per os, 24 h): 0.0%
oedema % inhibition ([1]; 50 mg/Kg per os, 48 h): 0.0%
oedema % inhibition ([1]; 50 mg/Kg per os, 72 h): 0.0%
oedema % inhibition ([1]; 50 mg/Kg, Table IV (route not given), 2 h): 53.8%
oedema % inhibition ([1]; 50 mg/Kg, Table IV (route not given), 4 h): 60.0%
oedema % inhibition ([1]; 50 mg/Kg, Table IV (route not given), 6 h): 58.4%
oedema % inhibition ([1]; 50 mg/Kg, Table IV (route not given), 24 h): 0.0%
oedema % inhibition ([1]; 50 mg/Kg, Table IV (route not given), 48 h): 0.0%
oedema % inhibition ([1]; 50 mg/Kg, Table IV (route not given), 72 h): 0.0%
oedema % inhibition ([1]; 100 mg/Kg per os, 2 h): 50.8%
oedema % inhibition ([1]; 100 mg/Kg per os, 4 h): 57.3%
oedema % inhibition ([1]; 100 mg/Kg per os, 6 h): 54.8%
oedema % inhibition ([1]; 100 mg/Kg per os, 24 h): 9.7%
oedema % inhibition ([1]; 100 mg/Kg per os, 48 h): 7.8%
oedema % inhibition ([1]; 100 mg/Kg per os, 72 h): 0.0%
oedema % inhibition ([1]; 100 mg/Kg, Table IV (route not given), 2 h): 57.0%
oedema % inhibition ([1]; 100 mg/Kg, Table IV (route not given), 4 h): 66.0%
oedema % inhibition ([1]; 100 mg/Kg, Table IV (route not given), 6 h): 67.1%
oedema % inhibition ([1]; 100 mg/Kg, Table IV (route not given), 24 h): 8.7%
oedema % inhibition ([1]; 100 mg/Kg, Table IV (route not given), 48 h): 2.0%
oedema % inhibition ([1]; 100 mg/Kg, Table IV (route not given), 72 h): 0.0%
% Protection [2]: 40.0%
% difference in mucus secretion ([3]; 50 mg/Kg i.p., 3 h): +3%
% difference in mucus secretion ([3]; 50 mg/Kg i.p., 6 h): +7%
% difference in mucus secretion ([3]; 50 mg/Kg per os, 3 h): +5%
% difference in mucus secretion ([3]; 50 mg/Kg per os, 6 h): +10%
% difference in mucus secretion ([3]; 75 mg/Kg i.p., 3 h): +8%
% difference in mucus secretion ([3]; 75 mg/Kg i.p., 6 h): +10%
% difference in mucus secretion ([3]; 75 mg/Kg per os, 3 h): 0.0%
% difference in mucus secretion ([3]; 75 mg/Kg per os, 6 h): +2%
% difference in mucus secretion ([3]; 100 mg/Kg i.p., 3 h): +7%
% difference in mucus secretion ([3]; 100 mg/Kg i.p., 6 h): 0.0%
% difference in mucus secretion ([3]; 100 mg/Kg per os, 3 h): +5%
% difference in mucus secretion ([3]; 100 mg/Kg per os, 6 h): 0.0%
% inhibition, cough amplitude ([4]; 50 mg/Kg i.p.): 0%
% inhibition, cough frequency ([4]; 50 mg/Kg i.p.): 0%
% inhibition, cough amplitude ([4]; 50 mg/Kg per os): 0%
% inhibition, cough frequency ([4]; 50 mg/Kg per os): 0%
% inhibition, cough amplitude ([4]; 75 mg/Kg i.p.): 0%
% inhibition, cough frequency ([4]; 75 mg/Kg i.p.): 10%
% inhibition, cough amplitude ([4]; 75 mg/Kg per os): 7%
% inhibition, cough frequency ([4]; 75 mg/Kg per os): 0%
% inhibition, cough amplitude ([4]; 100 mg/Kg i.p.): 7%
% inhibition, cough frequency ([4]; 100 mg/Kg i.p.): 10%
% inhibition, cough amplitude ([4]; 100 mg/Kg per os): 5%
% inhibition, cough frequency ([4]; 100 mg/Kg per os): 5%
